Data reported in ChEMBL document CHEMBL3414533, “Thiophene containing trisubstituted methanes [TRSMs] as identified lead against Mycobacterium tuberculosis” (Eur J Med Chem, 2015).
Converted amounts (≈) assume the structure as drawn. The source made the active and inactive calls. No cut-off for these calls is given here.

Tests used:
[1] = Cytotoxicity against African green monkey Vero C1008 cells assessed as reduction in cell viability after 24 hrs by MTS assay; type: cell-based; details: Chlorocebus sabaeus
[2] = tested on: Mycobacterium tuberculosis; assay: Antimycobacterial activity against Mycobacterium tuberculosis H37Rv incubated at 37 degC for 4 weeks; type: functional; details: 672 h
[3] = Selectivity index, ratio of IC50 for African green monkey Vero C1008 cells to MIC for Mycobacterium tuberculosis H37Rv; type: toxicity, cell-based; details: read-out: Selectivity Index
[4] = tested on: Mycobacterium tuberculosis; assay: Antimycobacterial activity against Mycobacterium tuberculosis H37Rv infected in mouse bone-marrow derived macrophages assessed as reduction in intracellular colony forming units at 4 times antimycobacterial MIC measured during 3 hrs infection period relative to control; type: functional
[5] = Elimination half life in rat by HPLC and LC-MS/MS method; type: ADME, organism-based; details: in vivo, read-out: beta t1/2 (converted)
[6] = tested on: Mycobacterium tuberculosis; assay: Bactericidal activity against Mycobacterium tuberculosis H37Rv infected in Swiss mouse assessed as microbial killing by measuring colony forming units at 100 mg/kg, po dosed daily for 28 days (reference value: 4800 CFU); type: functional
[7] = Bioavailability in rat by HPLC and LC-MS/MS method; type: ADME, organism-based; details: in vivo
[8] = Protein binding in rat plasma by HPLC and LC-MS/MS method; type: ADME, cell-free; details: read-out: PPB (converted)
[9] = tested on: Mycobacterium tuberculosis; assay: Antimycobacterial activity against Mycobacterium tuberculosis H37Rv infected in Swiss mouse assessed as reduction in lung bacterial lesions at 100 mg/kg, po dosed daily for 28 days measured up to day 40 by Ziehl-Neelsen staining method; type: functional, organism-based; parameters: dose 100 mg/kg
[10] = tested on: Mycobacterium tuberculosis; assay: Antimycobacterial activity against Mycobacterium tuberculosis H37Rv infected in human blood monocyte derived macrophages assessed as reduction in intracellular colony forming units at 4 times antimycobacterial MIC measured during 3 hrs infection period relative to control; type: functional
[11] = tested on: Mycobacterium tuberculosis; assay: Bactericidal activity against Mycobacterium tuberculosis H37Rv assessed as microbial killing at 1 times and 4 times MIC level measured on day 14; type: functional
[12] = tested on: Mycobacterium tuberculosis; assay: Antimycobacterial activity against Mycobacterium tuberculosis H37Rv infected in mouse bone-marrow derived macrophages assessed as reduction in intracellular colony forming units at 4 times antimycobacterial MIC measured during 3 hrs infection period; type: functional
[13] = tested on: Mycobacterium tuberculosis; assay: Antimycobacterial activity against Mycobacterium tuberculosis H37Rv infected in human blood monocyte derived macrophages assessed as reduction in intracellular colony forming units at 4 times antimycobacterial MIC measured during 3 hrs infection period; type: functional, organism-based
[14] = tested on: Mycobacterium tuberculosis; assay: Antimycobacterial activity against drug-sensitive Mycobacterium tuberculosis H37Rv by agar dilution method; type: functional
[15] = tested on: Mycobacterium tuberculosis; assay: Antimycobacterial activity against Mycobacterium tuberculosis H37Rv infected in Swiss mouse assessed as reduction in lung bacterial colony forming units at 100 mg/kg, po dosed daily for 28 days measured up to day 40; type: functional
[16] = tested on: Mycobacterium tuberculosis; assay: Bactericidal activity against Mycobacterium tuberculosis H37Rv assessed as microbial killing by measuring colony forming units at 1 times and 4 times MIC level measured on day 14 (reference value: 1680 CFU); type: functional
[17] = tested on: Mycobacterium tuberculosis; assay: Antimycobacterial activity against Mycobacterium tuberculosis H37Rv infected in Swiss mouse assessed as mouse survival level at 100 mg/kg, po dosed daily for 28 days measured up to day 40; type: functional
[18] = Mean residence time in rat by HPLC and LC-MS/MS method; type: ADME, organism-based; details: in vivo
[19] = tested on: Mycobacterium tuberculosis; assay: Antimycobacterial activity against Mycobacterium tuberculosis H37Rv infected in Swiss mouse assessed as lung bacterial colony forming units at 100 mg/kg, po dosed daily for 28 days measured up to day 40 (reference value: 31 10^7 CFU); type: functional
[20] = tested on: Mycobacterium tuberculosis; assay: Bactericidal activity against Mycobacterium tuberculosis H37Rv infected in Swiss mouse assessed as microbial killing at 100 mg/kg, po dosed daily for 28 days; type: functional; details: 672 h
[21] = tested on: Mycobacterium tuberculosis; assay: Antimycobacterial activity against Mycobacterium tuberculosis H37Rv infected in Swiss mouse assessed as median survival time at 100 mg/kg, po dosed daily for 28 days measured up to day 40; type: functional
[22] = tested on: Mycobacterium tuberculosis; assay: Antimycobacterial activity against Mycobacterium tuberculosis H37Rv infected in Swiss mouse assessed as lung bacterial colony forming units at 10 mg/kg, po dosed daily for 28 days measured up to day 40 (reference value: 31 10^7 CFU); type: functional
[23] = tested on: Mycobacterium tuberculosis; assay: Antimycobacterial activity against Mycobacterium tuberculosis H37Rv infected in Swiss mouse assessed as lung bacterial colony forming units at 150 mg/kg, po dosed daily for 28 days measured up to day 40 (reference value: 31 10^7 CFU); type: functional
[24] = tested on: Mycobacterium tuberculosis; assay: Bactericidal activity against Mycobacterium tuberculosis H37Rv infected in Swiss mouse assessed as microbial killing by measuring colony forming units dosed orally daily for 28 days (reference value: 4800 CFU); type: functional

Row | Compound | IC50 [1] [µg/mL] | MIC [2] [µg/mL] | selectivity ratio [3] | also measured
1 | Clc1cccc(C(c2ccc(OCCN3CCCCC3)cc2)c2cccs2)c1 (stereo not drawn) | 8.7 (≈ 21.1 µM) | 1.29 (≈ 3.13 µM) | < 10 | –
2 | CC(C)N(CCOc1ccc(C(c2cccs2)c2ccccc2F)cc1)C(C)C (stereo not drawn) | – | 10.3 (≈ 25 µM) | – | –
3 | COc1ccc(C(c2ccc(OCCN(C(C)C)C(C)C)cc2)c2cccs2)cc1 (stereo not drawn) | 100 (≈ 236 µM) | 1.33 (≈ 3.14 µM) | > 10 | inhibition (INH) [4]: 96%; half-life [5]: 9 h; CFU [6]: 1200; bioavailability [7]: 45%; fraction unbound [8]: 0.4; Activity [9]: Active; inhibition (INH) [10]: 81%; inhibition (INH) [11]: 100%; inhibition (percent reduction in intracellular colony forming units) [12]: >90%; inhibition [13]: Active; MIC [14]: 3.12 µM (≈ 1.32 µg/mL); fold change (FC) [15]: 15; CFU [16]: 0; survival at 100 mg/kg [17]: 42%; MRT [18]: 18 h; Activity [19]: 2.2 ×10⁷ CFU; inhibition in vivo at 100 mg/kg [20]: 75%; MST [21]: 7 days
4 | CSc1ccccc1C(c1ccc(OCCN(C)C)cc1)c1cccs1 (stereo not drawn) | – | 12.5 (≈ 32.6 µM) | – | –
5 | CC(C)N(CCOc1ccc(C(c2cccc(Cl)c2)c2cccs2)cc1)C(C)C (stereo not drawn) | 22 (≈ 51.4 µM) | 1.34 (≈ 3.13 µM) | > 10 | –
6 | CCN(CC)CCOc1ccc(C(c2cccs2)c2ccccc2F)cc1 (stereo not drawn) | – | 4.8 (≈ 12.5 µM) | – | –
7 | COc1ccccc1C(c1ccc(OCCN2CCCCCC2)cc1)c1cccs1 (stereo not drawn) | 12.7 (≈ 30.1 µM) | 2.64 (≈ 6.26 µM) | < 10 | –
8 | CC[C@@H](CO)NCCN[C@@H](CC)CO [ETHAMBUTOL] | – | – | – | Activity [22]: 1.27 ×10⁷ CFU
9 | CN(C)CCOc1ccc(C(c2cccc(F)c2)c2cccs2)cc1 (stereo not drawn) | – | 17.8 (≈ 50.1 µM) | – | –
10 | Fc1cccc(C(c2ccc(OCCN3CCCCC3)cc2)c2cccs2)c1 (stereo not drawn) | – | 19.8 (≈ 50.1 µM) | – | –
11 | CCN(CC)CCOc1ccc(C(c2cccs2)c2ccccc2SC)cc1 (stereo not drawn) | – | 25 (≈ 60.7 µM) | – | –
12 | CCN(CC)CCOc1ccc(C(c2cccc(F)c2)c2cccs2)cc1 (stereo not drawn) | 5.8 (≈ 15.1 µM) | 2.4 (≈ 6.26 µM) | < 10 | –
13 | CN(C)CCOc1ccc(C(c2cccc(Cl)c2)c2cccs2)cc1 (stereo not drawn) | 10.8 (≈ 29 µM) | 4.65 (≈ 12.5 µM) | < 10 | –
14 | CC(C)N(CCOc1ccc(C(c2ccc(Cl)cc2)c2cccs2)cc1)C(C)C (stereo not drawn) | 100 (≈ 234 µM) | 1.56 (≈ 3.64 µM) | > 10 | inhibition (INH) [4]: 94%; inhibition (INH) [10]: 88%; inhibition (percent reduction in intracellular colony forming units) [12]: >90%; Activity [17]: Active
15 | Fc1ccccc1C(c1ccc(OCCN2CCCC2)cc1)c1cccs1 (stereo not drawn) | – | 19.1 (≈ 50.1 µM) | – | –
16 | NNC(=O)c1ccncc1 [ISONIAZID] | – | – | – | inhibition (INH) [4]: 93%; inhibition (INH) [10]: 84%; inhibition [12]: Active; inhibition [13]: Active
17 | NC(=O)c1cnccn1 [PYRAZINAMIDE] | – | – | – | inhibition [12]: Active; Activity [23]: 1.9 ×10⁷ CFU
18 | CN(C)CCOc1ccc(C(c2cccs2)c2ccccc2F)cc1 (stereo not drawn) | – | 17.8 (≈ 50.1 µM) | – | –

Row | Compound | IC50 [1] [µg/mL] | MIC [2] [µg/mL] | selectivity ratio [3] | also measured
19 | Clc1ccc(C(c2ccc(OCCN3CCCCC3)cc2)c2cccs2)cc1 (stereo not drawn) | 100 (≈ 243 µM) | 0.78 (≈ 1.89 µM) | > 10 | inhibition (percent reduction in intracellular colony forming units) [12]: >90%; Activity [17]: inactive
20 | COc1ccccc1C(c1ccc(OCCN2CCCCC2)cc1)c1cccs1 (stereo not drawn) | 9.2 (≈ 22.6 µM) | 1.28 (≈ 3.14 µM) | < 10 | –
21 | Fc1ccccc1C(c1ccc(OCCN2CCCCC2)cc1)c1cccs1 (stereo not drawn) | 3.9 (≈ 9.86 µM) | 1.24 (≈ 3.13 µM) | < 10 | –
22 | COc1ccccc1C(c1ccc(OCCN2CCOCC2)cc1)c1cccs1 (stereo not drawn) | – | 10.2 (≈ 25 µM) | – | –
23 | Clc1cccc(C(c2ccc(OCCN3CCCC3)cc2)c2cccs2)c1 (stereo not drawn) | 8.6 (≈ 21.6 µM) | 2.49 (≈ 6.26 µM) | < 10 | –
24 | c1ccc(C(c2ccc(OCCN3CCOCC3)cc2)c2cccs2)cc1 (stereo not drawn) | – | 25 (≈ 65.8 µM) | – | –
25 | CO[C@H]1/C=C/O[C@@]2(C)Oc3c(C)c(O)c4c(O)c(c(/C=N/N5CCN(C)CC5)c(O)c4c3C2=O)NC(=O)/C(C)=C\C=C\[C@H](C)[C@H](O)[C@@H](C)[C@@H](O)[C@@H](C)[C@H](OC(C)=O)[C@@H]1C [RIFAMPIN] | – | – | – | inhibition [12]: Active; CFU [24]: 2000
26 | COc1ccccc1C(c1ccc(OCCN(C)C)cc1)c1cccs1 (stereo not drawn) | – | 9.19 (≈ 25 µM) | – | –
27 | CCN(CC)CCOc1ccc(C(c2cccc(Cl)c2)c2cccs2)cc1 (stereo not drawn) | 10.1 (≈ 25.3 µM) | 1.25 (≈ 3.13 µM) | < 10 | –
28 | COc1ccccc1C(c1ccc(OCCN2CCCC2)cc1)c1cccs1 (stereo not drawn) | – | 25 (≈ 63.5 µM) | – | –
29 | CSc1ccc(C(c2ccc(OCCN(C(C)C)C(C)C)cc2)c2cccs2)cc1 (stereo not drawn) | 100 (≈ 227 µM) | 1.57 (≈ 3.57 µM) | > 10 | inhibition (percent reduction in intracellular colony forming units) [12]: >90%; inhibition [13]: Active; Activity [17]: Active
30 | c1ccc(C(c2ccc(OCCN3CCCCC3)cc2)c2cccs2)cc1 (stereo not drawn) | – | 6.23 (≈ 16.5 µM) | – | –
31 | c1ccc(C(c2ccc(OCCN3CCCCCC3)cc2)c2cccs2)cc1 (stereo not drawn) | 13 (≈ 33.2 µM) | 3.1 (≈ 7.92 µM) | < 10 | –
32 | Fc1ccccc1C(c1ccc(OCCN2CCOCC2)cc1)c1cccs1 (stereo not drawn) | – | 19.9 (≈ 50.1 µM) | – | –
33 | Clc1cccc(C(c2ccc(OCCN3CCOCC3)cc2)c2cccs2)c1 (stereo not drawn) | 23.4 (≈ 56.5 µM) | 5.18 (≈ 12.5 µM) | < 10 | –
34 | CCN(CC)CCOc1ccc(C(c2ccccc2)c2cccs2)cc1 (stereo not drawn) | – | 12.5 (≈ 34.1 µM) | – | –
35 | COc1ccccc1C(c1ccc(OCCN(C(C)C)C(C)C)cc1)c1cccs1 (stereo not drawn) | – | 25 (≈ 59 µM) | – | –
36 | CCN(CC)CCOc1ccc(C(c2cccs2)c2ccccc2OC)cc1 (stereo not drawn) | – | 25 (≈ 63.2 µM) | – | –
